≈ marks a conversion by molar mass, not a printed value.

Holding throughout (assay): Antimicrobial susceptibility testing (NCCLS M7-A5), MIC
Holding throughout (assay type): cell-based

For experiment [1], the system named is Enterococcus faecalis ATCC 29212. The conditions noted are these: ATCC29212, in vitro, read-out: Minimum Inhibitory Concentration (MIC). The protocol: (§1) Antimicrobial susceptibility testing was performed in accordance with the National Committee for Clinical Laboratory Standards (NCCLS) procedure [M7-A5, 2001]. […] Methods for Dilution Antimicrobial Susceptibility Tests for Bacteria That Grow Aerobically; Approved Standard—Fifth Edition American National Standard

Experiment [2] concerns Staphylococcus epidermidis ATCC 12228. The conditions noted are these: ATCC12228, in vitro, read-out: Minimum Inhibitory Concentration (MIC). The protocol:
as §1

Experiment [3] has as its system Bacillus subtilis ATCC 6051. The conditions noted are these: ATCC6051, in vitro, read-out: Minimum Inhibitory Concentration (MIC). As to the method:
as §1

Experiment [4] relates to Escherichia coil ATCC 25922. The conditions noted are these: ATCC25922, in vitro, read-out: Minimum Inhibitory Concentration (MIC). As to the method: as §1
In experiment [5] the test system is Streptococcus pneumoniae ATCC 49619. The conditions noted are these: ATCC49619, in vitro, read-out: Minimum Inhibitory Concentration (MIC). As to the method: as §1
In experiment [6] the test system is Staphylococcus aureus ATCC 25923. The conditions noted are these: ATCC25923, in vitro, read-out: Minimum Inhibitory Concentration (MIC). As to the method: as §1

For `COc1cc(Cc2cnc(N)nc2N)cc(OC)c1OC` [Trimethoprim, 2,4-diamino-5-(3,4,5-trimethoxybenzyl)pyrimidine, reference compound], the MIC in experiment [1] is 0.5 µg/mL (≈ 1.72 µM); in experiment [2], 0.062 µg/mL (≈ 0.214 µM); in experiment [3], 0.5 µg/mL (≈ 1.72 µM); in experiment [4], 0.25 µg/mL (≈ 0.861 µM); in experiment [5] it was 2 µg/mL (≈ 6.89 µM); in experiment [6], 2 µg/mL (≈ 6.89 µM).

Take `COc1cc(Cc2cnc(N)nc2N)c2cc(Cc3ccccc3)oc2c1OC` [Example 21, 5-(2-Benzyl-6,7-dimethoxy-benzofuran-4-ylmethyl)-pyrimidine-2,4-diamine]: the MIC was 0.125 µg/mL (≈ 0.32 µM) in experiment [1]; 0.062 µg/mL (≈ 0.159 µM) in experiment [2]; 0.062 µg/mL (≈ 0.159 µM) in experiment [3]; 2 µg/mL (≈ 5.12 µM) in experiment [4]; 0.5 µg/mL (≈ 1.28 µM) in experiment [5]; 0.062 µg/mL (≈ 0.159 µM) in experiment [6].

As for `COc1cc(Cc2cnc(N)nc2N)c2cc(CC3CC3)oc2c1OC` [Example 20, 5-(2-Cyclopropylmethyl-6,7-dimethoxy-benzofuran-4-ylmethyl)-pyrimidine-2,4-diamine], the MIC in experiment [1] was found to be 0.5 µg/mL (≈ 1.41 µM); in experiment [2], 0.062 µg/mL (≈ 0.175 µM); in experiment [3], 0.062 µg/mL (≈ 0.175 µM); in experiment [4], 4 µg/mL (≈ 11.3 µM); in experiment [5], 0.125 µg/mL (≈ 0.353 µM); in experiment [6], 0.062 µg/mL (≈ 0.175 µM).

For the compound `COc1cc(Cc2cnc(N)nc2N)c2cc(Cc3ccc(F)cc3)oc2c1OC` [Example 72, 5-[2-(4-fluoro-benzyl)-6,7-dimethoxy-benzofuran-4-ylmethyl]-pyrimidine-2,4-diamine], the MIC came out at 1 µg/mL (≈ 2.45 µM) in experiment [1]; 0.015 µg/mL (≈ 0.0367 µM) in experiment [2]; 0.25 µg/mL (≈ 0.612 µM) in experiment [3]; 2 µg/mL (≈ 4.9 µM) in experiment [4]; 0.5 µg/mL (≈ 1.22 µM) in experiment [5]; 0.25 µg/mL (≈ 0.612 µM) in experiment [6].
